# Reference: ChEMBL document CHEMBL2440076, “New triarylpyrazoles as broad-spectrum anticancer agents: design, synthesis, and biological evaluation” (Eur J Med Chem, 2013)
# pIC50: −log10 of the molar value.
# How the values were obtained:
# [1] = Growth inhibition of human NCI-ADR-RES cells assessed as cell growth at 10 uM after 48 hrs by sulforhodamine B assay; format: functional; settings: read-out: Activity
# PC-3 = test: Growth inhibition of human PC3 cells after 48 hrs by sulforhodamine B assay; format: functional, cell-based; settings: PC-3, 48 h; for CC50: read-out: LC50 (the source's name)
# HCT-116 [2] = test: Growth inhibition of human HCT116 cells assessed as cell growth at 10 uM after 48 hrs by sulforhodamine B assay; format: functional; settings: HCT-116, 48 h, read-out: Activity
# HCT-116 [3] = test: Growth inhibition of human HCT116 cells after 48 hrs by sulforhodamine B assay; format: functional; settings: HCT-116, 48 h; for CC50: read-out: LC50 (the source's name)
# NCI-H322M = test: Growth inhibition of human NCI-H322M cells after 48 hrs by sulforhodamine B assay; format: functional; settings: for CC50: read-out: LC50 (the source's name)
# CCRF-CEM = test: Growth inhibition of human CCRF-CEM cells assessed as cell growth at 10 uM after 48 hrs by sulforhodamine B assay; format: functional; settings: read-out: Activity
# LOX IMVI = test: Growth inhibition of human LOXIMVI cells assessed as cell growth at 10 uM after 48 hrs by sulforhodamine B assay; format: functional; settings: read-out: Activity
# Malme-3M = test: Growth inhibition of human MALME-3M cells after 48 hrs by sulforhodamine B assay; format: functional
# NCI-H522 = test: Growth inhibition of human NCI-H522 cells assessed as cell growth at 10 uM after 48 hrs by sulforhodamine B assay; format: functional; settings: NCI-H522, 48 h, read-out: Activity
# OVCAR-3 [4] = test: Growth inhibition of human OVCAR3 cells assessed as cell growth at 10 uM after 48 hrs by sulforhodamine B assay; format: functional; settings: OVCAR-3, 48 h, read-out: Activity
# SF-268 = test: Growth inhibition of human SF268 cells after 48 hrs by sulforhodamine B assay; format: functional; settings: SF-268, 48 h; for CC50: read-out: LC50 (the source's name)
# HL-60(TB) = test: Growth inhibition of human HL-60(TB) cells assessed as cell growth at 10 uM after 48 hrs by sulforhodamine B assay; format: functional; settings: HL-60, 48 h, read-out: Activity
# MCF7 = test: Growth inhibition of human MCF7 cells assessed as cell growth at 10 uM after 48 hrs by sulforhodamine B assay; format: functional; settings: MCF7, 48 h, read-out: Activity
# OVCAR-3 [5] = test: Growth inhibition of human OVCAR3 cells after 48 hrs by sulforhodamine B assay; format: functional, cell-based; settings: OVCAR-3, 48 h; for CC50: read-out: LC50 (the source's name)
# COLO 205 = test: Growth inhibition of human COLO205 cells assessed as cell growth at 10 uM after 48 hrs by sulforhodamine B assay; format: functional; settings: COLO 205, 48 h, read-out: Activity
# UACC-257 = test: Growth inhibition of human UACC257 cells assessed as cell growth at 10 uM after 48 hrs by sulforhodamine B assay; format: functional; settings: UACC-257, 48 h, read-out: Activity
# RXF 393 = test: Growth inhibition of human RXF393 cells assessed as cell growth at 10 uM after 48 hrs by sulforhodamine B assay; format: functional; settings: RXF 393, 48 h, read-out: Activity
# NCI-H226 [6] = test: Growth inhibition of human NCI-H226 cells after 48 hrs by sulforhodamine B assay; format: functional; settings: NCI-H226, 48 h; for CC50: read-out: LC50 (the source's name)
# SK-OV-3 = test: Growth inhibition of human SKOV3 cells after 48 hrs by sulforhodamine B assay; format: functional; settings: SK-OV-3, 48 h; for CC50: read-out: LC50 (the source's name)
# HOP-92 = test: Growth inhibition of human HOP92 cells after 48 hrs by sulforhodamine B assay; format: functional, cell-based; settings: HOP-92, 48 h
# HCT-15 = test: Growth inhibition of human HCT15 cells assessed as cell growth at 10 uM after 48 hrs by sulforhodamine B assay; format: functional; settings: HCT-15, 48 h, read-out: Activity
# NCI-H226 [7] = test: Growth inhibition of human NCI-H226 cells assessed as cell growth at 10 uM after 48 hrs by sulforhodamine B assay; format: functional; settings: NCI-H226, 48 h, read-out: Activity
# SN12C = test: Growth inhibition of human SN12C cells after 48 hrs by sulforhodamine B assay; format: functional; settings: for CC50: read-out: LC50 (the source's name)
# MOLT-4 [8] = test: Growth inhibition of human MOLT4 cells assessed as cell growth at 10 uM after 48 hrs by sulforhodamine B assay; format: functional; settings: MOLT-4, 48 h, read-out: Activity
# NCI-H460 [9] = test: Growth inhibition of human NCI-H460 cells after 48 hrs by sulforhodamine B assay; format: functional; settings: NCI-H460, 48 h
# IGROV-1 = test: Growth inhibition of human IGROV1 cells assessed as cell growth at 10 uM after 48 hrs by sulforhodamine B assay; format: functional; settings: IGROV-1, 48 h, read-out: Activity
# [10] = Growth inhibition of human HCC2998 cells assessed as cell growth at 10 uM after 48 hrs by sulforhodamine B assay; format: functional; settings: HCC 2998, 48 h, read-out: Activity
# A549 = test: Growth inhibition of human A549/ATCC cells after 48 hrs by sulforhodamine B assay; format: functional; settings: A549, 48 h
# SF-539 = test: Growth inhibition of human SF539 cells assessed as cell growth at 10 uM after 48 hrs by sulforhodamine B assay; format: functional; settings: SF-539, 48 h, read-out: Activity
# [11] = Growth inhibition of human Hs 578T cells after 48 hrs by sulforhodamine B assay; format: functional; settings: for CC50: read-out: LC50 (the source's name)
# NCI-H460 [12] = test: Growth inhibition of human NCI-H460 cells assessed as cell growth at 10 uM after 48 hrs by sulforhodamine B assay; format: functional; settings: NCI-H460, 48 h, read-out: Activity
# MOLT-4 [13] = test: Growth inhibition of human MOLT4 cells after 48 hrs by sulforhodamine B assay; format: functional; settings: MOLT-4, 48 h; for CC50: read-out: LC50 (the source's name)
# DU-145 = test: Growth inhibition of human DU145 cells after 48 hrs by sulforhodamine B assay; format: functional; settings: DU-145, 48 h
# [14] = Growth inhibition of human NCI-ADR-RES cells after 48 hrs by sulforhodamine B assay; format: functional; settings: for CC50: read-out: LC50 (the source's name)
smiles,measurement,setting,value
COc1cc(-c2nn(-c3cccc(NC(=O)c4ccc(Cl)c(C(F)(F)F)c4)c3)cc2-c2ccncc2)ccc1Cl,growth at 10 µM,[1],13.4%
same,GI50,PC-3,1.29 µM
same,pIC50,PC-3,5.89
same,TGI,PC-3,> 32.5 µM
same,CC50,PC-3,> 32.5 µM
same,growth at 10 µM,HCT-116 [2],24%
same,GI50,HCT-116 [3],2.49 µM
same,TGI,HCT-116 [3],> 32.5 µM
same,CC50,HCT-116 [3],> 32.5 µM
same,GI50,NCI-H322M,12.8 µM
same,TGI,NCI-H322M,> 32.5 µM
same,CC50,NCI-H322M,> 32.5 µM
same,growth at 10 µM,CCRF-CEM,12.4%
same,growth at 10 µM,LOX IMVI,32.2%
same,GI50,Malme-3M,1.18 µM
same,LC50 (concentration killing 50% of starting cells),Malme-3M,> 32.5 µM
same,TGI,Malme-3M,19.7 µM
same,growth at 10 µM,NCI-H522,1.5%
same,growth at 10 µM,OVCAR-3 [4],19.5%
same,GI50,SF-268,4.86 µM
same,TGI,SF-268,> 32.5 µM
same,CC50,SF-268,> 32.5 µM
same,growth at 10 µM,HL-60(TB),3.23%
same,growth at 10 µM,MCF7,37.6%
same,GI50,OVCAR-3 [5],2.42 µM
same,pIC50,OVCAR-3 [5],5.62
same,TGI,OVCAR-3 [5],19.8 µM
same,CC50,OVCAR-3 [5],> 32.5 µM
same,growth at 10 µM,COLO 205,69.4%
same,growth at 10 µM,UACC-257,23.5%
same,growth at 10 µM,RXF 393,-0.4%
same,GI50,NCI-H226 [6],5.9 µM
same,TGI,NCI-H226 [6],> 32.5 µM
same,CC50,NCI-H226 [6],> 32.5 µM
same,GI50,SK-OV-3,9.29 µM
same,TGI,SK-OV-3,> 32.5 µM
same,CC50,SK-OV-3,> 32.5 µM
same,GI50,HOP-92,0.665 µM
same,pIC50,HOP-92,6.17
same,LC50,HOP-92,> 32.5 µM
same,TGI,HOP-92,3.23 µM
same,growth at 10 µM,HCT-15,51.7%
same,growth at 10 µM,NCI-H226 [7],56.3%
same,GI50,SN12C,11.2 µM
same,TGI,SN12C,> 32.5 µM
same,CC50,SN12C,> 32.5 µM
same,growth at 10 µM,MOLT-4 [8],20.3%
same,GI50,NCI-H460 [9],3.47 µM
same,LC50,NCI-H460 [9],> 32.5 µM
same,TGI,NCI-H460 [9],> 32.5 µM
same,growth at 10 µM,IGROV-1,48.9%
same,growth at 10 µM,[10],-8.08%
same,GI50,A549,2.4 µM
same,LC50 (concentration killing 50% of starting cells),A549,> 32.5 µM
same,TGI,A549,> 32.5 µM
same,growth at 10 µM,SF-539,33%
same,GI50,[11],2.17 µM
same,TGI,[11],> 32.5 µM
same,CC50,[11],> 32.5 µM
same,growth at 10 µM,NCI-H460 [12],25.4%
same,GI50,MOLT-4 [13],5.24 µM
same,TGI,MOLT-4 [13],> 32.5 µM
same,CC50,MOLT-4 [13],> 32.5 µM
same,GI50,DU-145,6.39 µM
same,LC50,DU-145,> 32.5 µM
same,TGI,DU-145,> 32.5 µM
same,GI50,[14],1.29 µM
same,TGI,[14],11.2 µM
same,CC50,[14],> 32.5 µM
COc1cc(-c2nn(-c3cccc(NC(=O)Nc4ccc(Cl)c(Cl)c4)c3)cc2-c2ccncc2)ccc1Cl,growth at 10 µM,[1],0.32%
same,GI50,PC-3,0.554 µM
same,pIC50,PC-3,6.26
same,TGI,PC-3,2.83 µM
same,CC50,PC-3,> 50 µM
same,growth at 10 µM,HCT-116 [2],8.67%
same,GI50,HCT-116 [3],1.21 µM
same,TGI,HCT-116 [3],> 50 µM
same,CC50,HCT-116 [3],> 50 µM
same,GI50,NCI-H322M,1.69 µM
same,TGI,NCI-H322M,> 50 µM
same,CC50,NCI-H322M,> 50 µM
same,growth at 10 µM,CCRF-CEM,-7.9%
same,growth at 10 µM,LOX IMVI,1.38%
same,GI50,Malme-3M,0.926 µM
same,LC50 (concentration killing 50% of starting cells),Malme-3M,> 50 µM
same,TGI,Malme-3M,2.42 µM
same,growth at 10 µM,NCI-H522,-14.7%
same,growth at 10 µM,OVCAR-3 [4],-10%
same,GI50,SF-268,1.51 µM
same,TGI,SF-268,20.3 µM
same,CC50,SF-268,> 50 µM
same,growth at 10 µM,HL-60(TB),-18.1%
same,growth at 10 µM,MCF7,1.73%
same,GI50,OVCAR-3 [5],0.697 µM
same,pIC50,OVCAR-3 [5],6.15
same,TGI,OVCAR-3 [5],2.27 µM
same,CC50,OVCAR-3 [5],> 50 µM
same,growth at 10 µM,COLO 205,-80.4%
same,growth at 10 µM,UACC-257,-36.6%
same,growth at 10 µM,RXF 393,-22.8%
same,GI50,NCI-H226 [6],1.35 µM
same,TGI,NCI-H226 [6],> 50 µM
same,CC50,NCI-H226 [6],> 50 µM
same,GI50,SK-OV-3,1.93 µM
same,TGI,SK-OV-3,> 50 µM
same,CC50,SK-OV-3,> 50 µM
same,GI50,HOP-92,0.151 µM
same,pIC50,HOP-92,6.82
same,LC50,HOP-92,> 50 µM
same,TGI,HOP-92,1.47 µM
same,growth at 10 µM,HCT-15,12.7%
same,growth at 10 µM,NCI-H226 [7],9.61%
same,GI50,SN12C,1.47 µM
same,TGI,SN12C,> 50 µM
same,CC50,SN12C,> 50 µM
same,growth at 10 µM,MOLT-4 [8],-11.1%
same,GI50,NCI-H460 [9],1.11 µM
same,LC50,NCI-H460 [9],> 50 µM
same,TGI,NCI-H460 [9],> 50 µM
same,growth at 10 µM,IGROV-1,23.9%
same,growth at 10 µM,[10],2.84%
same,GI50,A549,0.745 µM
same,LC50 (concentration killing 50% of starting cells),A549,> 50 µM
same,TGI,A549,> 50 µM
same,growth at 10 µM,SF-539,12.3%
same,GI50,[11],1.43 µM
same,TGI,[11],> 50 µM
same,CC50,[11],> 50 µM
same,growth at 10 µM,NCI-H460 [12],2.32%
same,GI50,MOLT-4 [13],1.1 µM
same,TGI,MOLT-4 [13],4.48 µM
same,CC50,MOLT-4 [13],> 50 µM
same,GI50,DU-145,1.52 µM
same,LC50,DU-145,> 50 µM
same,TGI,DU-145,34.2 µM
same,GI50,[14],0.99 µM
same,TGI,[14],4.67 µM
same,CC50,[14],> 50 µM
